Paper PMC10208580 (Science Advances, 2023)
Read-outs that look alike come from different tables or passages of the source. Bridge positions count the residues as written; N and C are the ends. Square brackets hold non-standard residues; d marks the D form. Ends that are not written are not given here. Peptide text beside a SMILES is read from it. pT = C[C@@H](OP(=O)(O)O)[C@H](N)C(=O)O

Key:
RyR1 [1] = target: T1, RyR1 (Oryctolagus cuniculus, UniProt P11716); experiment: [3H]ryanodine binding to skeletal muscle heavy SR vesicles; format: biochemical, rabbit; settings: for EC50: SEM
T1 construct: from tissue; host or cells: rabbit skeletal muscle heavy SR vesicles

[2] = target: rabbit RyR1 (Ryanodine Receptor 1), purified from skeletal muscle (rabbit) (UniProt P11716)
RyR1 [3] = settings: cited from earlier work
Description: The detailed binding interface between IpCa and RyR1 is shown in Fig. 3, and putative interacting pairs of residues are shown in table S1. IpCa enters the vestibule of the channel and binds deep at the cytosolic side, adjacent to the transmembrane region. All RyR1 residues involved in binding are located in the cytosolic extensions of the inner S6 helices (S6ext) that line the permeation pathway. Equivalent residues of all four RyR1 subunits make different interactions with IpCa. The most extensive interface includes the side of IpCa that contains the 22–30 loop. It mostly consists of various ... || The structure is also in agreement with previous mutagenesis studies of calcins. For example, Arg^23 is conserved in all calcins and forms a likely salt bridge with RyR1 residue Asp^4945. […] Another study found a general importance of multiple charged IpCa residues to form a subconductance state in RyR1, with the largest effects found for substitutions in the 22–30 loop ([20]), which forms the most extensive interactions with RyR1. Thus, the structure appears to be in general agreement with known potencies of natura ... || A third tunnel with a smaller radius (~1.8 Å) can be found at the lateral opening near Arg^24 (“exit 3,” fig. S10D). The narrower radius, along with the presence of three positively charged residues at the constriction point, likely provides a sizeable energetic barrier. Thus, on the basis of minimum radius and electrostatic surface potential, exit 1 may form the most likely exit pathway for Ca^2+ ions.

rabbit RyR1 = experiment: Cryo-EM of RyR1 incubated with calcin variant (density for peptide); format: binding; settings: activating conditions (Ca2+, ATP, caffeine, CaM1234), incubation up to an hour
Description: For activating conditions (datasets 3 to 5), RyR1 samples were diluted to contain 30 μM buffered free Ca^2+, 80 μM CaM1234, 5 mM caffeine, and 8 mM (dataset 3) or 5 mM (datasets 4 and 5) ATP. Purified IpCa (powder) was first diluted to 1 mM in buffer S5 without EGTA or Ca^2+ and then added to the RyR1 samples to a final concentration of 30 to 80 μM. Samples were incubated in the presence of IpCa (including pT26 and T26E) up to an hour before plunging. RyR1 particles from each condition were assessed by negative-stain EM. Four microliters of purified RyR1 diluted to 0.01 to 0.05 mg/ml was applied to glow-discharged 400-mesh copper grids (Electron Microscopy Sciences) and stained with 0.7% (w/v %) uranyl formate. Negatively stained EM grids were imaged on a Tecnai G2 Spirit microscope (Thermo Fisher Scientific) operated at 120 kV or a Talos with a Ceta camera operated at 120 kV.
For cryo-EM, RyR1 samples with a final concentration of 10 to 12 mg/ml were used. The samples were applied to holey carbon R2/2 grids (Quantifoil). Grids were blotted for 3 s with −5 to −15 blot force applied and subsequently flash-frozen with liquid ethane using a Vitrobot IV (Thermo Fisher Scientific). Grids were transferred to a Titan Krios G2 electron microscope (Thermo Fisher Scientific) operating at 300 kV. […]

[4] = target: T2, mouse cAMP PKA catalytic subunit (PKAc, α isoform) (Mus musculus, UniProt P05132); experiment: ADP-Glo kinase assay, Michaelis-Menten kinetics of peptide phosphorylation; format: biochemical; settings: peptide as PKA substrate, 25 nM PKAc, 1 mM ATP, 6 repeats
T2 construct: His tag (inferred from HisTrap purification) (cleaved yes); made in house; host or cells: E. coli Rosetta (DE3) pLysI
Description: (§1) PKAc was concentrated to 500 μM, aliquoted, and stored in kinase buffer containing 20 mM Hepes (pH 7.4), 150 mM KCl, 4 mM TCEP, 5 mM MgCl2, and 30% glycerol and stored at −70°C in 0.5-ml tubes prior for use in kinase assays. All ADP-Glo Max reagents (Promega) were thawed and brought to room temperature before use. Each 0.5-ml PKAc tube was thawed and diluted to 0.5 μM in the kinase buffer without the glycerol. Kemptide and IpCa substrates were diluted to 1 mM in kinase buffer (without glycerol) from 10 mM stock made from lyophilized powder. Using a twofold dilution series, substrate concentrations ranged from 512 to 0.5 μM. In addition, a reaction with no substrate was added for a total of 12 reactions using a 20-μl reaction volume. One microliter of ATP (from the ADP-Glo Max kit) was used to reach a final concentration of 1 mM ATP in the reaction volume. Reaction was started by adding 1 μl of PKAc to reach 25 nM for each reaction. All reactions were carried out at room temperature for 30 to 60 min. Duplicates of each reaction tube were plated on a Corning 384-well solid white polystyrene microplates (Thermo Fisher Scientific) and used for downstream detection and luminescence readings. The average values of each duplicate reaction were used as a single replicate. Thus, for the total of six replicates, 12 reactions were used. Readings are based on relative luminescence units, which are converted into moles of ATP hydrolyzed using an adenosine diphosphate–ATP standard curve according to manufacturer’s protocol (Promega). Each standard curve was run in duplicate where the average was used to calculate moles of ATP hydrolyzed in each kinase reaction. Luminescence readings were recorded from the microplate wells using a PerkinElmer Victor X4.
(§2) A nonlinear regression Michaelis-Menten kinetics fitting function was used in GraphPad Prism 8.0 to calculate KM,Vmax, and Kcat values for the PKA-IpCa kinase assays. SEMs are reported for each data point as calculated in Prism. Figures and graphs were generated using PyMOL, ChimeraX, and Prism 8.0 unless otherwise noted. [^3H] Ryanodine binding data were fitted using nonlinear regression analysis in Origin 2018b software (Origin Lab). Hill’s equation was used to determine Bmax (maximum specific binding) and Kd ([…]). Statistical significance was determined at P < 0.05.

[5] = system: CC(C)C[C@@H]1NC(=O)[C@H](Cc2c[nH]cn2)NC(=O)[C@@H]2CCCN2C(=O)[C@H](CC(C)C)NC(=O)[C@@H](NC(=O)[C@H](CC(=O)O)NC(=O)CN)CSSC[C@@H]2NC(=O)[C@@H]3CSSC[C@@H](C(=O)N[C@@H](CCCNC(=N)N)C(=O)O)NC(=O)[C@H](CCCNC(=N)N)NC(=O)[C@H](CCCCN)NC(=O)[C@H](CCC(=O)O)NC(=O)[C@H](C)NC(=O)[C@H](CC(N)=O)NC(=O)[C@H]([C@@H](C)O)NC(=O)CNC(=O)[C@H](CCCNC(=N)N)NC(=O)[C@H](CCCNC(=N)N)NC(=O)[C@H](CCCCN)NC(=O)[C@H](CSSC[C@H](NC(=O)[C@H](CCCNC(=N)N)NC(=O)[C@H](CCCCN)NC1=O)C(=O)N[C@@H](CCCCN)C(=O)N[C@@H](C)C(=O)N[C@@H](CC(=O)O)C(=O)N[C@@H](CC(N)=O)C(=O)N[C@@H](CC(=O)O)C(=O)N3)NC(=O)[C@H](CCCCN)NC(=O)[C@H](CCCCN)NC(=O)CNC2=O; experiment: as above; format: biochemical, mouse; settings: other: peptide as PKA substrate; 25 nM PKAc, 1 mM ATP, substrate 0.5-512 µM, room temperature 30-60 min, luminescence; 6 repeats; pH 7.4
Description: as §1, §2

T1 sequence (P11716 whole entry): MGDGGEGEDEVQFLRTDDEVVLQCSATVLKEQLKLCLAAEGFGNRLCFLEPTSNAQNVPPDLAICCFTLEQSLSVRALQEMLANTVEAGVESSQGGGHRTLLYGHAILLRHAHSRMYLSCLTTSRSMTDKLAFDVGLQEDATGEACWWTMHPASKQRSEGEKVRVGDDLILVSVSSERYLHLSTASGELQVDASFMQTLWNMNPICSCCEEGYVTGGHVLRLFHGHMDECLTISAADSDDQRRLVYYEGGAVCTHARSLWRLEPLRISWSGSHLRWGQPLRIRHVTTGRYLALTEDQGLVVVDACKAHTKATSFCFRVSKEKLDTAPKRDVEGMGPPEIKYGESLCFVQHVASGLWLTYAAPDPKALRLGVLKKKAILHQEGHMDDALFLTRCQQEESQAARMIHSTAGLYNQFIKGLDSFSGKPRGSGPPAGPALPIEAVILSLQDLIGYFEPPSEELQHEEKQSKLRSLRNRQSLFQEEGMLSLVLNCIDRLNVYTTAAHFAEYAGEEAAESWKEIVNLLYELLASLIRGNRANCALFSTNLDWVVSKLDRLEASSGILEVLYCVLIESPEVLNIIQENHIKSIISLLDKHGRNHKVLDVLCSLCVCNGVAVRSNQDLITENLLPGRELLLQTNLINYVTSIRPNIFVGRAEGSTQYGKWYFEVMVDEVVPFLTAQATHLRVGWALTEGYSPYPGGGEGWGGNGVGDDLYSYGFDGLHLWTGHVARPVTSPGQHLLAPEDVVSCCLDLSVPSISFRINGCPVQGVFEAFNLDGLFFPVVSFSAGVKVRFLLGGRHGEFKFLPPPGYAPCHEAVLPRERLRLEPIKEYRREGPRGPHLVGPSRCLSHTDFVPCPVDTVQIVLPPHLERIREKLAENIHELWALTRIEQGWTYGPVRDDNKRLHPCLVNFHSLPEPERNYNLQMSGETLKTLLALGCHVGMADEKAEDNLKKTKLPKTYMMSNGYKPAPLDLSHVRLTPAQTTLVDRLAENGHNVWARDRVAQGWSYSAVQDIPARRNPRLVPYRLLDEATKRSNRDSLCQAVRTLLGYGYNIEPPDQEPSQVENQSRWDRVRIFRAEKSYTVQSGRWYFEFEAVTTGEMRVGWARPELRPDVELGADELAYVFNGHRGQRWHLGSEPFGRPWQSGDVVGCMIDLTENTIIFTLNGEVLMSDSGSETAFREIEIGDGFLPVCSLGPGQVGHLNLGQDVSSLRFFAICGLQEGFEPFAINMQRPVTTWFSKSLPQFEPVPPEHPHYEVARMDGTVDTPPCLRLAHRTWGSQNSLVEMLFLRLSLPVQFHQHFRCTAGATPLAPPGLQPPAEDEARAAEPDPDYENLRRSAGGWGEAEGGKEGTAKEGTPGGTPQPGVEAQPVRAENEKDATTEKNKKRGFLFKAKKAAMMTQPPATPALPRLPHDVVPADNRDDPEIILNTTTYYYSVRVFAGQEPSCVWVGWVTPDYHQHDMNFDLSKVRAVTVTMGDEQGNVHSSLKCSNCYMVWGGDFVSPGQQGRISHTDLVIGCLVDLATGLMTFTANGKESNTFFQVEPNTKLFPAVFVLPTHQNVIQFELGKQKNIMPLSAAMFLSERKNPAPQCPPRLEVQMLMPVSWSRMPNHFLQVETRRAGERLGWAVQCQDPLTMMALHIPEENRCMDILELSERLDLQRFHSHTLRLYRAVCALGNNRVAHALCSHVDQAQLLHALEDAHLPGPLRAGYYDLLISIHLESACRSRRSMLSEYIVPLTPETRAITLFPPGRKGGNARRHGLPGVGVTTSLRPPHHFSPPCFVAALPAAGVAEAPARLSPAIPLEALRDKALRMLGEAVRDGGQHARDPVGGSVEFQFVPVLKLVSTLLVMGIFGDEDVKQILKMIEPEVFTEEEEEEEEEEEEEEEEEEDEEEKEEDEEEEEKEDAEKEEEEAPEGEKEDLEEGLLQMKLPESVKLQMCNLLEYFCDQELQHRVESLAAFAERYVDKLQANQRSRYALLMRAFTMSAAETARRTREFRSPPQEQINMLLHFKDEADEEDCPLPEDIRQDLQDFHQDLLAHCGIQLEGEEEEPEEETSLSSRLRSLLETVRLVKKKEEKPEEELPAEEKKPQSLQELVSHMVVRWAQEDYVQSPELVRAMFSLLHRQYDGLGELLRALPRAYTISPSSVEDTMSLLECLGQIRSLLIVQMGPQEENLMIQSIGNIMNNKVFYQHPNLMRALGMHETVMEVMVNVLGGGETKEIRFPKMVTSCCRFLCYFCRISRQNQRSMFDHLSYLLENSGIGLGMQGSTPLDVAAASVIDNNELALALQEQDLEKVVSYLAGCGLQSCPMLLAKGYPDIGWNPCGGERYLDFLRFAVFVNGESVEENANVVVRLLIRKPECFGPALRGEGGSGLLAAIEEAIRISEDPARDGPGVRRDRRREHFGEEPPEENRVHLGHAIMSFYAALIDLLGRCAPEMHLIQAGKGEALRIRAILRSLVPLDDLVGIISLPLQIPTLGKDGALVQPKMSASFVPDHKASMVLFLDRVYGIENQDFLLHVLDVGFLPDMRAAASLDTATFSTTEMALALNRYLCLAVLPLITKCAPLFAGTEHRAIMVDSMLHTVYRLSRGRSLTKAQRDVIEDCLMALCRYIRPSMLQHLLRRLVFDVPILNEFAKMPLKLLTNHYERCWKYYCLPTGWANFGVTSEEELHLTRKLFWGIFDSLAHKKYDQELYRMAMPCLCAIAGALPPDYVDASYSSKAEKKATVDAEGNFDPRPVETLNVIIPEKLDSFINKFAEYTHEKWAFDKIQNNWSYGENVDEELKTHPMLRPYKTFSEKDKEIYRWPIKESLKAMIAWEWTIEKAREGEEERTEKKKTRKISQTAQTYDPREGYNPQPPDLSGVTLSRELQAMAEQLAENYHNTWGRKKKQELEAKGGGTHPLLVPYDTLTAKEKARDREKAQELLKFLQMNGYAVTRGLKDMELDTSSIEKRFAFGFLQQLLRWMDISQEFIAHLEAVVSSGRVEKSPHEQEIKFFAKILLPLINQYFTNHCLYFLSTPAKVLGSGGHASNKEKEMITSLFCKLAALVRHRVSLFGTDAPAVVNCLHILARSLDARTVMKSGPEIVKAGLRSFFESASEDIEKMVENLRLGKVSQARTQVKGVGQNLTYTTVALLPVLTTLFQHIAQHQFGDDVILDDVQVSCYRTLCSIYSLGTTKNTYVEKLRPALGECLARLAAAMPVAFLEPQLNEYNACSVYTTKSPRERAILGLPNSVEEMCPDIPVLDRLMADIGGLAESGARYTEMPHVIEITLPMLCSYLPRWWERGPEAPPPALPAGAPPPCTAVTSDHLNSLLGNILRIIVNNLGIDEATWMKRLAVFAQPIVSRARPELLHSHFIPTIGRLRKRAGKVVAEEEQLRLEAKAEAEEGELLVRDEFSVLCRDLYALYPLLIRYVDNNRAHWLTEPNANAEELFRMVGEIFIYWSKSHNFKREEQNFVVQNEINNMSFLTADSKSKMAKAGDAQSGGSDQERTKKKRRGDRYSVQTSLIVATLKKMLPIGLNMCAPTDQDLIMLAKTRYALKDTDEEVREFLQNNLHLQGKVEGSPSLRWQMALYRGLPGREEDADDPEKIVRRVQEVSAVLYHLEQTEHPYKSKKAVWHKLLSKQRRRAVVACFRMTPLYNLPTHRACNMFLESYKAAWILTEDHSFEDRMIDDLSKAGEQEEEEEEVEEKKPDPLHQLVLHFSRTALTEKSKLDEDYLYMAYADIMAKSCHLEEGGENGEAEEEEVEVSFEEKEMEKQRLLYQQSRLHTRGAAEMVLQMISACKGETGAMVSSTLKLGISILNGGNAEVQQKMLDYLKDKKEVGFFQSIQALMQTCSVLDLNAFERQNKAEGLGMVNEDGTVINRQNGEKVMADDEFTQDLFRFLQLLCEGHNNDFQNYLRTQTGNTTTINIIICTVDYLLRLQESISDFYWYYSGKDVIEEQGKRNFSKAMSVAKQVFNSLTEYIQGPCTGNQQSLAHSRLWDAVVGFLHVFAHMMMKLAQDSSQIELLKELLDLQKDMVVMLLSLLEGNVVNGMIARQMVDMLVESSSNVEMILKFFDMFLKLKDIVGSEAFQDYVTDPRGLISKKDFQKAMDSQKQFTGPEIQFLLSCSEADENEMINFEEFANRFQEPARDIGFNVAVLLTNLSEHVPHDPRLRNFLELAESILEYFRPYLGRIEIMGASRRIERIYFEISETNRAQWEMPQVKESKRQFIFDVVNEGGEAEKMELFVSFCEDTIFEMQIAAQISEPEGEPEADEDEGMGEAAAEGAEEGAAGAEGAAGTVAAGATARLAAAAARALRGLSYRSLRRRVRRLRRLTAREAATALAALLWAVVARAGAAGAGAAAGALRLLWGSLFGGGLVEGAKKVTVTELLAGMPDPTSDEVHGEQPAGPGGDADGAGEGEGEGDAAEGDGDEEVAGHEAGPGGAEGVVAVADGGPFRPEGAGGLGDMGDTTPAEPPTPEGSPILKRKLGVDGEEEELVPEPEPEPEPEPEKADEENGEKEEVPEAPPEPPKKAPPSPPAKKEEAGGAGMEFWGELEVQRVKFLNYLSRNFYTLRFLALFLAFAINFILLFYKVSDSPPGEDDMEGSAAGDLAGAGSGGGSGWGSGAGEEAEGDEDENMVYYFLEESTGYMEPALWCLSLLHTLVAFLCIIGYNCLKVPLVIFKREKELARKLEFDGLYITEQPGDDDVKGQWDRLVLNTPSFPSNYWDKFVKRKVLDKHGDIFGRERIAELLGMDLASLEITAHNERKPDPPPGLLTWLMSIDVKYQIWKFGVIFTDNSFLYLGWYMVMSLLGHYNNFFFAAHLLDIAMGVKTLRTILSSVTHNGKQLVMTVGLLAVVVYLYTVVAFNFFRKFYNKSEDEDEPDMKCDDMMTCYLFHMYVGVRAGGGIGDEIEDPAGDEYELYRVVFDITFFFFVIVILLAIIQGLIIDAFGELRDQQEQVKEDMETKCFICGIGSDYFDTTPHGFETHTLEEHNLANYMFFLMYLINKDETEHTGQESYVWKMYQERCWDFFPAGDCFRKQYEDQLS
Chain of rabbit RyR1 (Ryanodine Receptor 1), purified from skeletal muscle (rabbit) (P11716 whole entry): as above

## CC(C)C[C@@H]1NC(=O)[C@H](Cc2c[nH]cn2)NC(=O)[C@@H]2CCCN2C(=O)[C@H](CC(C)C)NC(=O)[C@@H](NC(=O)[C@H](CC(=O)O)NC(=O)CN)CSSC[C@@H]2NC(=O)[C@@H]3CSSC[C@@H](C(=O)N[C@@H](CCCNC(=N)N)C(=O)O)NC(=O)[C@H](CCCNC(=N)N)NC(=O)[C@H](CCCCN)NC(=O)[C@H](CCC(=O)O)NC(=O)[C@H](C)NC(=O)[C@H](CC(N)=O)NC(=O)[C@H]([C@@H](C)O)NC(=O)CNC(=O)[C@H](CCCNC(=N)N)NC(=O)[C@H](CCCNC(=N)N)NC(=O)[C@H](CCCCN)NC(=O)[C@H](CSSC[C@H](NC(=O)[C@H](CCCNC(=N)N)NC(=O)[C@H](CCCCN)NC1=O)C(=O)N[C@@H](CCCCN)C(=O)N[C@@H](C)C(=O)N[C@@H](CC(=O)O)C(=O)N[C@@H](CC(N)=O)C(=O)N[C@@H](CC(=O)O)C(=O)N3)NC(=O)[C@H](CCCCN)NC(=O)[C@H](CCCCN)NC(=O)CNC2=O [IpCa, Imperacalcin] (H-GDCLPHLKRCKADNDCCGKKCKRRGTNAEKRCR-OH; disulfide 3-17, 10-21, 16-32)
RyR1 [1]
  EC50: 6 ± 2 nM

## CC(C)C[C@@H]1NC(=O)[C@H](Cc2c[nH]cn2)NC(=O)[C@@H]2CCCN2C(=O)[C@H](CC(C)C)NC(=O)[C@@H](NC(=O)[C@H](CC(=O)O)NC(=O)CN)CSSC[C@@H]2NC(=O)[C@@H]3CSSC[C@@H](C(=O)N[C@@H](CCCNC(=N)N)C(=O)O)NC(=O)[C@H](CCCNC(=N)N)NC(=O)[C@H](CCCCN)NC(=O)[C@H](CCC(=O)O)NC(=O)[C@H](C)NC(=O)[C@H](CC(N)=O)NC(=O)[C@H]([C@@H](C)OP(=O)(O)O)NC(=O)CNC(=O)[C@H](CCCNC(=N)N)NC(=O)[C@H](CCCNC(=N)N)NC(=O)[C@H](CCCCN)NC(=O)[C@H](CSSC[C@H](NC(=O)[C@H](CCCNC(=N)N)NC(=O)[C@H](CCCCN)NC1=O)C(=O)N[C@@H](CCCCN)C(=O)N[C@@H](C)C(=O)N[C@@H](CC(=O)O)C(=O)N[C@@H](CC(N)=O)C(=O)N[C@@H](CC(=O)O)C(=O)N3)NC(=O)[C@H](CCCCN)NC(=O)[C@H](CCCCN)NC(=O)CNC2=O [IpCa-pT26] (H-GDCLPHLKRCKADNDCCGKKCKRRG[pT]NAEKRCR-OH; disulfide 3-17, 10-21, 16-32)
RyR1 [1]; skeletal muscle heavy SR vesicles, mean ± SEM for n = 3 separate experiments, read-out: Median effective concentration for stimulation of [3H]ryanodine binding
  EC50: 42 ± 10 nM

## Imperacalcin (from UniProt P59868 1-33) (peptide)
[2]
  [3H] ryanodine binding to skeletal muscle heavy SR vesicles against IpCa-WT concentration; median effective concentration: 6 nM

## IpCa R23E: IpCa with the R23E mutation, from previous mutagenesis study (GDCLPHLKRCKADNDCCGKKCKERGTNAEKRCR; ends and bridges not checked; cysteine pairing not given here; UniProt P59868 1-33, looked up, variant R23E)
RyR1 [3]
  Effect of mutation on potency: drastically reduce potency

## IpCa-T26E: IpCa variant containing a phosphomimetic (T26E) (GDCLPHLKRCKADNDCCGKKCKRRGENAEKRCR; disulfide (positions not given here); not fully specified; ends not checked; UniProt P59868 1-33, looked up, variant T26E)
Rabbit RyR1
  Cryo-EM density for the peptide bound to RyR1: failed to show any density for IpCa
RyR1 [1]; skeletal muscle heavy SR vesicles, no phosphatase inhibitors
  Effect on [3H]ryanodine binding: completely inert

## LRRASLG [Kemptide]
[4]; room temperature
  Vmax: 8.34 ± 0.40 µmol/min/mg
  kcat: 277 ± 13.2 min⁻¹
[4]; substrate 0.5-512 µM, room temperature 30-60 min, luminescence
  Km: 10.3 ± 2.16 µM

## mouse cAMP PKA catalytic subunit (PKAc, α isoform) (Mus musculus)
[5]
  Km: 22.0 ± 3.40 µM
  Vmax: 20.2 ± 0.93 µmol/min/mg
  kcat: 672 ± 31.1 min⁻¹
  kcat/Km: 30.5 min⁻¹ µM⁻¹

## opicalcin2: calcin differing from opicalcin1 only by Ala26 instead of Thr26 (GDCLPHLKRCKENNDCCSKKCKRRGANPEKRCR; ends and bridges not checked; cysteine pairing not given here; UniProt P60253 34-66, looked up)
RyR1 [3]
  Apparent affinity / potency: can still bind with high potency
RyR1 [3]; opicalcin2 less potent, fig. S5, ref Xiao et al (2016)
  Difference in potency between opicalcin1 and opicalcin2: ~ 10 fold
